{
  "source": "paper PMC3920258",
  "about": "“Experimental Basis for the High Oral Toxicity of Dinophysistoxin 1: A Comparative Study of DSP” (Toxins, 2014)",
  "key": {"[1]": {"test_system": "differentiated Caco-2 monolayers", "assay": "Annexin V-FITC apoptosis detection, confocal imaging", "format": "cell-based, human", "conditions": "100 nM toxin, 24 h", "text": "Cell membrane integrity assay: Some fluorescent methods allow a non-destructive evaluation of apoptosis by detecting changes in the structure of cell membranes. Annexin V has a high affinity for phosphatidylserine (PS), a phospholipid component located on the inner surface of the lipid bilayer of the cellular plasma membrane. During early apoptosis processes, this PS migrates to the outer portion, becomes exposed on the surface of the cell and can be detected by binding to annexin V labeled with a fluorescent dye. The annexin V assay was carried out in differentiated Caco-2 monolayers that were treated for 24 h with 100 nM of OA, DTX1, DTX2 or vehicle. Incubation with 0.005% Triton X-100 was used as a positive control of cell death and 1 μM staurosporine (STP) and 100 mM sodium butyrate (NaBT) as inductors of cell apoptosis.\nTo visualize apoptosis by confocal microscopy in the toxin-treated Caco-2 monolayers, an apoptosis detection kit containing annexin V conjugated with FITC from Immunostep (Salamanca, Spain) was used.\nCaco-2 cells were seeded on glass coverslips at an initial concentration of 65 × 10^3 cells/mL and cultured for 21 days until differentiation with medium renewal each 2–3 days. On the 21st day, the cell medium was removed, and the monolayers were treated for 24 h with toxins: OA, DTX1, DTX2, vehicle and positive controls of apoptosis and cellular death (staurosporine (STP), sodium butyrate (NaBT) and Triton-X 100). Immediately after the 24 h of incubation, the medium was removed, and the cells were rinsed 3 times with PBS just before the addition of annexin V-FITC in a proportion of 1:100 diluted in the provided binding buffer. After 15 min of incubation in the dark at room temperature, the cells were rinsed again 3 times with PBS and fixed using paraformaldehyde 2% for 15 min at 4 °C. Finally, another 3 washes with PBS were required prior to mounting the coverslips over microscope glass slides with 10 μL of PBS/Glycerol (1:1) and sealing the edges with nail varnish. Confocal imaging was then carried out with a 40× oil immersion objective of a Nikon Eclipse TE2000-E inverted microscope attached to the C1 laser confocal system and EZ-C1 V.2.20 software (Nikon Instruments Europe B.V., Amstelveen, Netherlands). An argon laser was used to excite the annexin V-FITC conjugated protein (λ excitation = […], λ emission = […])."}, "PP2A": {"test_system": "PP2A", "conditions": "cited from earlier work; for inhibition equivalency factor (IEF): PP2A"}, "[2]": {"test_system": "differentiated Caco-2 monolayers", "assay": "Caco-2 permeability assay with microsphere-based immunoassay quantification", "format": "in vitro ADME, human", "method": "With the aim of evaluating the transport of OA, DTX1 and DTX2 through the cell monolayer, we performed the permeability assays as described in Section 4.7. Caco-2 cell monolayers were incubated with OA, DTX1 and DTX2 for 3, 6, 12 and 24 h. […] According to the results, almost all the OA and DTX2 remain in the apical side (Figure 6 A,D and C,F). […] Likewise, in the absence of a cell monolayer (shown as no cells in Figure 6), all the toxins easily flow over inserts.\nThe permeability assay was carried out as previously described. During the assays, cell monolayer integrity was evaluated by measuring TEER at the start and end of the experiment. Once the incubation with the toxins (OA, DTX1 and DTX2) finished (after 3, 6, 12 or 24 h), the medium was collected from both the insert (donor compartment/apical side of the monolayer) and the well (receiver compartment/basolateral side of the monolayer) for toxin quantification purposes. Previously, we confirmed that the toxins easily flow over the naked inserts.\nOA, DTX1 and DTX2 samples taken from the inserts/donor compartments and wells/receptor compartments where quantified, as previously described by Fraga et al.. In order to consider the cross-reactivity of the analyzed derivatives of the okadaic acid, DTX-1 and DTX-2, calibration curves were prepared using calibration solutions with CRMs of DTX-1 and DTX-2. Therefore, the quantification of DTX-1 and DTX-2 samples collected from permeability assays were quantified against their respective calibration curves."}, "PP1": {"test_system": "PP1", "conditions": "cited from earlier work"}, "[3]": {"test_system": "differentiated Caco-2 cells", "assay": "AlamarBlue metabolic activity (viability) assay", "format": "cell-based, human", "conditions": "1-1000 nM toxin, 6-72 h; highest 1000 nM for 72 h", "method": "Metabolic activity assay: Cytotoxic effects of OA, DTX1 and DTX2 (1, 10, 20, 40, 100, 200, 500 and 1000 nM) in differentiated Caco-2 cells have been evaluated in a time-dependent manner by the AlamarBlue metabolic activity assay. Incubation with 0.01% Triton X-100 has been used as a positive control of death. Data are shown in Figure 2 as the percent of fluorescence vs. control.\nThe viability of the Caco-2 cells was measured by Alamar Blue assay, as previously described. Briefly, the Caco-2 cells were seeded onto 96-well plates at an initial concentration of 25,000 cells/mL and cultured until differentiation (21 days) with medium renewal every 2–3 days. Subsequently, cells were treated with increasing concentrations of OA, DTX1, DTX2 and Triton X-100 in the presence of AlamarBlue; then, fluorescence was measured at 6, 8, 10, 12, 24, 48 and 72 hours of incubation using a FL600 Microplate Fluorescence Reader from BioTek (Winooski, VT, USA) at an excitation wavelength of 530 nm and an emission wavelength of 590 nm. Control cells were considered as having 100% viability, and the results are expressed as the percentage of the fluorescence of treated cells versus the fluorescence of control ones."}, "[4]": {"test_system": "differentiated Caco-2 monolayers", "assay": "Trans-epithelial electrical resistance (TEER) measurement", "format": "cell-based, human", "method": "We assessed tight junction formation stability through measurements of trans-epithelial electrical resistance (TEER). […] We studied the changes that OA, DTX1 and DTX2 induced in the TEER of the Caco-2 monolayer as a function of time. Differentiated Caco-2 monolayers were incubated with 10, 50 and 100 nM OA, DTX1 and DTX2. TEER was measured immediately before the toxins addition and after 3, 6, 12 and 24 h of incubation with them.\nTrans epithelial electric resistance (TEER) was measured across differentiated Caco-2 monolayers, as previously described. The measurements were performed before the treatment with OA, DTX1 and DTX2 (controls), and after each of the incubation times established: 3, 6, 12 and 24 h. Only inserts with TEER higher than 300 Ωcm^2 before the addition of the toxin were used for further testing."}, "mice [5]": {"test_system": "mice", "conditions": "cited from earlier work"}, "occludin in Caco-2 cells": {"test_system": "occludin in Caco-2 cells", "assay": "Confocal microscopy imaging of occludin", "format": "cell-based, human", "conditions": "100 nM toxin, 24 h", "method": "Tight-junction strands are composed of membrane integral proteins, occludin being the best-studied member. We evaluate the integrity of such tight-junctions in Caco-2 cells treated with 100 nM OA, DTX1 and DTX2 for 24 h by labeling occludin. […] (Figure 5C).\nAlexa Fluor® 488-labeled anti-occludin mouse monoclonal antibody from Invitrogen (Camarillo, CA, USA) was used for visualizing occludin, as previously described.\nBriefly, differentiated Caco-2 monolayers were treated with OA, DTX1, DTX2, vehicle and positive controls of apoptosis and cellular death: staurosporine (STP), sodium butyrate (NaBT) and Triton-X 100. Immediately after treatments, the cells were fixed and incubated with the anti-occludin antibody. Each experimental condition was performed in duplicate. Confocal imaging was then carried out with a 40× oil immersion objective of a Nikon Eclipse TE2000-E inverted microscope attached to the C1 laser confocal system and EZ-C1 V.2.20 software (Nikon Instruments Europe B.V., Amstelveen, Netherlands). An Argon laser was used to excite the Alexa Fluor 488 conjugated antibody."}, "mice [6]": {"test_system": "mice", "conditions": "cited from earlier work", "remark": "listed apart in the source"}},
  "note": "Where two headings read alike, the source gives them in different places.",
  "data": [
    {"smiles": "C=C1[C@@H](O)[C@@H]2O[C@]3(CC[C@H](/C=C/[C@@H](C)[C@@H]4CC(C)=C[C@@]5(O[C@H](C[C@@](C)(O)C(=O)O)CC[C@H]5O)O4)O3)CC[C@H]2O[C@@H]1[C@@H](O)C[C@H](C)[C@H]1O[C@@]2(CC[C@H]1C)OCCC[C@H]2C", "note": "[DTX1, dinophysistoxin-1]", "values": [
      {"measurement": "annexin V-FITC fluorescence (apoptosis)", "setting": "[1]", "result": "Lack of fluorescence"},
      {"measurement": "inhibition equivalency factor (IEF)", "setting": "PP2A; higher IC50 than OA", "result": "0.6–0.9"},
      {"measurement": "inhibition equivalency factor (IEF)", "setting": "PP2A; lower IC50 than OA", "result": "1.6–2.4"},
      {"measurement": "dissociation constant, fold lower compared to OA", "setting": "PP2A; catalytic subunit PP2A", "result": 1.6, "unit": "fold"},
      {"measurement": "amount of toxin in the basolateral side", "setting": "[2]; 100 nM, 24 h", "result": "increase in the amount of toxin in the basolateral side"},
      {"measurement": "initial amount recovered from the basolateral side", "setting": "[2]; 100 nM, 24 h", "result": "~50", "unit": "%"},
      {"measurement": "concentration at which toxin significantly crosses the intestinal epithelium", "setting": "[2]; as stated in abstract", "result": "above 100 nM"},
      {"measurement": "inhibition equivalency factor (IEF), IC50 OA / IC50 analogue", "setting": "PP1", "result": "0.4–0.9"},
      {"measurement": "fluorescence intensity (percent of viability vs. control)", "setting": "[3]", "result": "did not show any decrease in fluorescence intensity"},
      {"measurement": "change in TEER value", "setting": "[4]; 50 nM, 24 h", "result": "significantly decreased"},
      {"measurement": "change in TEER value", "setting": "[4]; 100 nM, 12 and 24 h", "result": "decrease was much more noticeable"},
      {"measurement": "TEER values lowered to", "setting": "[4]; 100 nM, 12 h", "result": 50, "unit": "%"},
      {"measurement": "TEER values lowered to", "setting": "[4]; 100 nM, 24 h", "result": 70, "unit": "%"},
      {"measurement": "concentration disrupting the integrity of Caco-2 monolayers", "setting": "[4]; as stated in abstract", "result": "above 50 nM"},
      {"measurement": "concentration disrupting the monolayer integrity", "setting": "[4]; for 12 h and above", "result": "> 100", "unit": "nM"},
      {"measurement": "oral toxicity compared with i.p. injection", "setting": "mice [5]", "result": "only slightly less toxic when administered orally than when given by i.p. injection"},
      {"measurement": "lethal oral dose", "setting": "mice [5]; mice, oral, ref 58", "result": 300, "unit": "μg/kg b.w."},
      {"measurement": "occludin distribution / location", "setting": "occludin in Caco-2 cells", "result": "fragmented and less uniform staining of occludin"},
      {"measurement": "toxicity equivalent factor (TEF)", "setting": "mice [6]; EFSA, based on mice i.p. toxicity, reference OA", "result": 1},
      {"measurement": "minimum lethal dose", "setting": "mice [6]; mice, i.p.", "result": 0.16, "unit": "mg/kg"}
    ]}
  ]
}
